Where a name gives a salt, the structure may show the parent alone. Blank lines part the entries; values can stand above or below the compound they belong to.
Columns and labels:
Assay in all cases: MIC, NCCLS broth microdilution
Assay type in all cases: cell-based
[1] = test system: Pseudomonas aeruginosa MK1184; conditions: for MIC of antibiotic at fixed inhibitor concentration (4 mg/L): MIC of antibiotic compound 1 with the labelled bridged monobactam of formula II and clavulanate, 4 mg/L each
[2] = test system: Pseudomonas aeruginosa 1973E; conditions: for MIC of antibiotic at fixed inhibitor concentration (4 mg/L): MIC of antibiotic compound 1 with the labelled bridged monobactam of formula II and clavulanate, 4 mg/L each
How it was run: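 Broth microdilution per NCCLS M7-A5, final DMSO ≤1%, overnight incubation at 30° C. or 37° C. MIC is the lowest concentration completely inhibiting visible growth, read by eye. In combination tests, formula I compounds were serially diluted with formula II and III-XIII partners held at 4 μg/mL each.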

[3] = test system: Enterobacter cloacae P99; conditions: for MIC of antibiotic at fixed inhibitor concentration (4 mg/L): MIC of antibiotic compound 1 with the labelled bridged monobactam of formula II and clavulanate, 4 mg/L each
[4] = test system: Serratia marcescens S6; conditions: for MIC of antibiotic at fixed inhibitor concentration (4 mg/L): MIC of antibiotic compound 1 with the labelled bridged monobactam of formula II and clavulanate, 4 mg/L each
[5] = test system: Klebsiella pneumoniae CF104; conditions: for MIC of antibiotic at fixed inhibitor concentration (4 mg/L): MIC of antibiotic compound 1 with the labelled bridged monobactam of formula II and clavulanate, 4 mg/L each
[6] = test system: Acinetobacter sp. J2; conditions: for MIC of antibiotic at fixed inhibitor concentration (4 mg/L): Acinetobacter sp. J2, MIC of antibiotic compound 1 with the labelled bridged monobactam of formula II and clavulanate, 4 mg/L each
[7] = test system: Stenotrophomonas malthophilia 1AC736; conditions: for MIC of antibiotic at fixed inhibitor concentration (4 mg/L): Stenotrophomonas malthophilia 1AC736, MIC of antibiotic compound 1 with the labelled bridged monobactam of formula II and clavulanate, 4 mg/L each

MIC of antibiotic ([1]; antibiotic alone, no inhibitor): >32 µg/mL
MIC of antibiotic at fixed inhibitor concentration of 4 mg/L ([1]; with 102 and clavulanate): 16 µg/mL
MIC of antibiotic at fixed inhibitor concentration of 4 mg/L ([1]; with 102 and sulbactam): 32 µg/mL
MIC of antibiotic at fixed inhibitor concentration of 4 mg/L ([1]; with 323 and clavulanate): 32 µg/mL
MIC of antibiotic at fixed inhibitor concentration of 4 mg/L ([1]; with 323 and sulbactam): 8 µg/mL
MIC of antibiotic at fixed inhibitor concentration of 4 mg/L ([1]; with 324 and sulbactam): 32 µg/mL
MIC of antibiotic ([2]; antibiotic alone, no inhibitor): 8 µg/mL
MIC of antibiotic at fixed inhibitor concentration of 4 mg/L ([2]; with 102 and clavulanate): 8 µg/mL
MIC of antibiotic at fixed inhibitor concentration of 4 mg/L ([2]; with 102 and sulbactam): 16 µg/mL
MIC of antibiotic at fixed inhibitor concentration of 4 mg/L ([2]; with 323 and clavulanate): 16 µg/mL
MIC of antibiotic at fixed inhibitor concentration of 4 mg/L ([2]; with 323 and sulbactam): 32 µg/mL
MIC of antibiotic at fixed inhibitor concentration of 4 mg/L ([2]; with 324 and sulbactam): 16 µg/mL
MIC of antibiotic ([3]; antibiotic alone, no inhibitor): >32 µg/mL
MIC of antibiotic at fixed inhibitor concentration of 4 mg/L ([3]; with 102 and clavulanate): 32 µg/mL
MIC of antibiotic at fixed inhibitor concentration of 4 mg/L ([3]; with 102 and sulbactam): 32 µg/mL
MIC of antibiotic at fixed inhibitor concentration of 4 mg/L ([3]; with 323 and clavulanate): 8 µg/mL
MIC of antibiotic at fixed inhibitor concentration of 4 mg/L ([3]; with 323 and sulbactam): 8 µg/mL
MIC of antibiotic at fixed inhibitor concentration of 4 mg/L ([3]; with 324 and sulbactam): 8 µg/mL
MIC of antibiotic ([4]; antibiotic alone, no inhibitor): 8 µg/mL
MIC of antibiotic at fixed inhibitor concentration of 4 mg/L ([4]; with 102 and clavulanate): 0.5 µg/mL
MIC of antibiotic at fixed inhibitor concentration of 4 mg/L ([4]; with 102 and sulbactam): 16 µg/mL
MIC of antibiotic at fixed inhibitor concentration of 4 mg/L ([4]; with 323 and clavulanate): 2 µg/mL
MIC of antibiotic at fixed inhibitor concentration of 4 mg/L ([4]; with 323 and sulbactam): 2 µg/mL
MIC of antibiotic at fixed inhibitor concentration of 4 mg/L ([4]; with 324 and sulbactam): 4 µg/mL
MIC of antibiotic ([5]; antibiotic alone, no inhibitor): >32 µg/mL
MIC of antibiotic at fixed inhibitor concentration of 4 mg/L ([5]; with 102 and clavulanate): <0.06 µg/mL
MIC of antibiotic at fixed inhibitor concentration of 4 mg/L ([5]; with 102 and sulbactam): 2 µg/mL
MIC of antibiotic at fixed inhibitor concentration of 4 mg/L ([5]; with 323 and clavulanate): 2 µg/mL
MIC of antibiotic at fixed inhibitor concentration of 4 mg/L ([5]; with 323 and sulbactam): 1 µg/mL
MIC of antibiotic at fixed inhibitor concentration of 4 mg/L ([5]; with 324 and sulbactam): 4 µg/mL
MIC of antibiotic ([6]; Acinetobacter baumannii J2, antibiotic alone, no inhibitor): >32 µg/mL
MIC of antibiotic at fixed inhibitor concentration of 4 mg/L ([6]; Acinetobacter baumannii J2, with 102 and clavulanate): >32 µg/mL
MIC of antibiotic at fixed inhibitor concentration of 4 mg/L ([6]; Acinetobacter baumannii J2, with 102 and sulbactam): 2 µg/mL
MIC of antibiotic at fixed inhibitor concentration of 4 mg/L ([6]; Acinetobacter baumannii J2, with 323 and clavulanate): 8 µg/mL
MIC of antibiotic at fixed inhibitor concentration of 4 mg/L ([6]; Acinetobacter baumannii J2, with 323 and sulbactam): 2 µg/mL
MIC of antibiotic at fixed inhibitor concentration of 4 mg/L ([6]; Acinetobacter baumannii J2, with 324 and sulbactam): 2 µg/mL
MIC of antibiotic ([7]; Stenotrophomonas maltophilia 1AC736, antibiotic alone, no inhibitor): 8 µg/mL
MIC of antibiotic at fixed inhibitor concentration of 4 mg/L ([7]; Stenotrophomonas maltophilia 1AC736, with 102 and clavulanate): 2 µg/mL
MIC of antibiotic at fixed inhibitor concentration of 4 mg/L ([7]; Stenotrophomonas maltophilia 1AC736, with 102 and sulbactam): 8 µg/mL
MIC of antibiotic at fixed inhibitor concentration of 4 mg/L ([7]; Stenotrophomonas maltophilia 1AC736, with 323 and clavulanate): 2 µg/mL
MIC of antibiotic at fixed inhibitor concentration of 4 mg/L ([7]; Stenotrophomonas maltophilia 1AC736, with 323 and sulbactam): 4 µg/mL
MIC of antibiotic at fixed inhibitor concentration of 4 mg/L ([7]; Stenotrophomonas maltophilia 1AC736, with 324 and sulbactam): 4 µg/mL
Compound: C[C@H]1[C@H](NC(=O)/C(=N\OCc2cc(=O)c(O)cn2O)c2nccc(N)n2)C(=O)N1S(=O)(=O)O [Compound 21, (3S,4S)-3-{(2Z)-2-(4-aminopyrimidin-2-yl)-3-[(1,5-dihydroxy-4-oxo(2-hydropyridyl))methoxy]-3-azaprop-2-enoylamino}-4-methyl-2-oxoazetidinesulfonic acid]

MIC of antibiotic at fixed inhibitor concentration (4 mg/L) [1]: 16 µg/mL
MIC of antibiotic at fixed inhibitor concentration (4 mg/L) [2]: 8 µg/mL
MIC of antibiotic at fixed inhibitor concentration (4 mg/L) [3]: 32 µg/mL
MIC of antibiotic at fixed inhibitor concentration (4 mg/L) [4]: 0.125 µg/mL
MIC of antibiotic at fixed inhibitor concentration (4 mg/L) [5]: >32 µg/mL
MIC of antibiotic at fixed inhibitor concentration (4 mg/L) [6]: 2 µg/mL
MIC of antibiotic at fixed inhibitor concentration (4 mg/L) [7]: 0.125 µg/mL
Compound: NC(=O)c1c[n+](CC(=O)N2CC[C@@H]3[C@H]2C(=O)N3S(=O)(=O)[O-])ccc1N [Compound 126, (1S,5R)-2-[2-(4-amino-3-carbamoylpyridinium)acetyl]-7-oxo-2,6-diazabicyclo[3.2.0]heptane-6-sulfonate, inner salt]

MIC of antibiotic at fixed inhibitor concentration (4 mg/L) [1]: 32 µg/mL
MIC of antibiotic at fixed inhibitor concentration (4 mg/L) [2]: 4 µg/mL
MIC of antibiotic at fixed inhibitor concentration (4 mg/L) [3]: 8 µg/mL
MIC of antibiotic at fixed inhibitor concentration (4 mg/L) [4]: 0.25 µg/mL
MIC of antibiotic at fixed inhibitor concentration (4 mg/L) [5]: 2 µg/mL
MIC of antibiotic at fixed inhibitor concentration (4 mg/L) [6]: 2 µg/mL
MIC of antibiotic at fixed inhibitor concentration (4 mg/L) [7]: 8 µg/mL
Compound: O=C(C[n+]1ccccc1)Nc1ccc(SCC(=O)N2CC[C@@H]3[C@H]2C(=O)N3S(=O)(=O)[O-])cc1 [Compound 204, (1S,5R)-7-oxo-2-{2-[4-(2-pyridiniumacetylamino)phenylthio]acetyl}-2,6-diazabicyclo[3.2.0]heptane-6-sulfonate, inner salt]

MIC of antibiotic at fixed inhibitor concentration (4 mg/L) [1]: 32 µg/mL
MIC of antibiotic at fixed inhibitor concentration (4 mg/L) [2]: 4 µg/mL
MIC of antibiotic at fixed inhibitor concentration (4 mg/L) [3]: 32 µg/mL
MIC of antibiotic at fixed inhibitor concentration (4 mg/L) [4]: 0.25 µg/mL
MIC of antibiotic at fixed inhibitor concentration (4 mg/L) [5]: 1 µg/mL
MIC of antibiotic at fixed inhibitor concentration (4 mg/L) [6]: 2 µg/mL
MIC of antibiotic at fixed inhibitor concentration (4 mg/L) [7]: 8 µg/mL
Compound: CN(C)n1ccc(SCC(=O)N2CC[C@@H]3[C@H]2C(=O)N3S(=O)(=O)O)nc1=O [Compound 203, (1S,5R)-2-{2-[1-(dimethylamino)-2-oxohydropyrimidin-4-ylthio]acetyl}-7-oxo-2,6-diazabicyclo[3.2.0]heptane-6-sulfonic acid]

MIC of antibiotic at fixed inhibitor concentration (4 mg/L) [1]: 8 µg/mL
MIC of antibiotic at fixed inhibitor concentration (4 mg/L) [2]: 16 µg/mL
MIC of antibiotic at fixed inhibitor concentration (4 mg/L) [3]: 32 µg/mL
MIC of antibiotic at fixed inhibitor concentration (4 mg/L) [4]: 0.25 µg/mL
MIC of antibiotic at fixed inhibitor concentration (4 mg/L) [5]: 0.5 µg/mL
MIC of antibiotic at fixed inhibitor concentration (4 mg/L) [6]: 16 µg/mL
MIC of antibiotic at fixed inhibitor concentration (4 mg/L) [7]: 0.125 µg/mL
Compound: COC(=O)c1ccc[n+](CC(=O)N2CC[C@@H]3[C@H]2C(=O)N3S(=O)(=O)[O-])c1 [Compound 116, (1S,5R)-2-{2-[3-(methoxycarbonyl)pyridinium]acetyl}-7-oxo-2,6-diazabicyclo[3.2.0]heptane-6-sulfonate, inner salt]
